Data on two molecules can be found in publication PMC9011347, “Small-Molecule Inhibitors Targeting Lipolysis in Human Adipocytes” (Journal of the American Chemical Society, 2022).

What all share (test): TAG hydrolase assay, chimeric ATGL variants
Assay type in all cases: biochemical, human and mouse

The target of assay [1] is T1, c5 (aa 1–111 of human ATGL) (Homo sapiens, UniProt Q96AD5, G146T/N133S/S158T).
T1 construct: host or cells: Expi293 cells, cell lysate
The conditions noted are these: variant c5, NG-497 (10 μM) or Atglistatin (10 μM). Here is the method:
(§1) Figure 5 Analysis of chimeric proteins comprising human and mouse ATGL. (a) Schematic view of the minimal active domain of wild-type and chimeric ATGL variants (c1–c9). Nonidentical aa are indicated in blue and red for mouse and human ATGL, respectively. ATGL variants were expressed in Expi293 cells and TAG hydrolase activity was determined in cell lysates in the presence or absence of NG-497 (10 μM) and Atglistatin (10 μM), respectively. Inhibition of ATGL variants by respective inhibitors (tick mark) and lack of inhibition (cross) is indicated at the right edge. The expression of all ATGL variants was confirmed by Western blotting analysis (Figure S6). (b) Dose-dependent inhibition of human ATGL (aa 1–288) and c1 (human aa 1–158 and mouse aa 159–288) by NG-497. (c) Dose-dependent inhibition of mouse ATGL (aa 1–288) and c2 (mouse aa 1–158 and human aa 159–288) by Ai. IC50 values are shown in the insets. Data are presented as relative inhibition of respective DMSO controls and are indicated as mean ± SD. (d) 3D homology model of the minimal active domain of mouse ATGL (M1–L254) depicted as a cartoon. Residues 1–178 are in blue, and residues 179–254 are in gray. S47 and D166 comprising the active site are represented as green sticks. T101, C106, R109, N111, and S133 are colored in orange, A60, N68, I69, T93, C97, and T146 are colored in magenta. TEXT PRINTED IN THE PICTURE: (b) NG-497: IC50 [μM] (human): 1.3±0.1; IC50 [μM] (c1): 1.3±0.1 | (b) Ai: IC50 [μM] (human): n.det.; IC50 [μM] (c1): n.det. | (c) NG-497: IC50 [μM] (mouse): n.det.; IC50 [μM] (c2): n.det. | (c) Ai: IC50 [μM] (mouse): 2.5±0.3; IC50 [μM] (c2): 2.4±0.1 […]
(§2) We next generated variants by further stepwise humanization of c2. Variant c3 containing aa 1–23 of human ATGL was inhibited by Ai but not NG-497 (Figure 5a). […] Finally, variants of mouse ATGL containing aa 1–146 (c7) and 60–146 (c8) of human ATGL were inhibited by NG-497 but not Ai (Figure 5a).
(§3) Experimental details, materials, and methods
(§4) Expression of recombinant ATGL constructs and preparation of cell lysates. Expi293 cells were cultivated in Expi293 Expression Medium (GIBCO, Thermo Fisher Scientific, Waltham, USA) at standard conditions (37°C, 5% CO2, 95% humidified atmosphere, 125 rpm). DNA constructs containing ATGL from different species and chimeric ATGL variants in pcDNA3.1(+)myc-His C Vector were obtained from BioCat GmbH (Heidelberg, Germany). Cells were transfected with ExpiFectamine293 Transfection Kit (GIBCO) in Opti-Mem reduced serum medium (GIBCO) according to the manufacturer’s instructions. After 48 h, cells were harvested by centrifugation and washed three times with PBS. Cells were disrupted in buffer A (0.25 M sucrose, 1 mM EDTA, 1 mM dithiothreitol, 20µg/ml leupeptin, 2 µg/ml antipain, 1 µg/ml pepstatin, pH 7.0) by sonication (Virsonic 475, Virtis, Gardiner, USA). Nuclei and debris were removed by centrifugation at 1,000 g and 4°C for 10 min. Protein concentrations were determined using Bio-Rad protein assay (Bio-Rad 785, Bio-Rad Laboratories, Munich, Germany) using BSA as standard.
(§5) Expression and purification of mouse CGI-58. CGI-58 was expressed and purified as described 1. In brief, the coding sequence of mouse Cgi-58 was cloned into pHis-Sumo and co-transformed with the plasmid pTf16 expressing the chaperone Tig into E. coli BL21(DE3). Cells were cultured overnight at 37°C and 180 rpm in the presence of 40 µg/ml kanamycin and 34 µg/ml chloramphenicol. Thereafter, cells were transferred into fresh LB medium, grown until OD600 of 0.6, and expression was induced by the addition of 0.5 mM IPTG. After overnight incubation at 30°C, cells were harvested at 4,500 x g and 4°C for 20 min, washed in 1x PBS, and resuspended in lysis buffer (20 mM Tris/HCl pH 7.8, 300 mM NaCl, 30 mM imidazole, 0.1% IGEPAL CA-630, 3.5 mM β-mercaptoethanol, 20 µg/ml leupeptin, 2 µg/ml antipain and 1 µg/ml pepstatin). Cells were incubated with 1 […]

Assay [2] addresses T2, Variant c4 (aa 1–69 of human ATGL) (Homo sapiens, UniProt Q96AD5, F97C/G146T/H109R/I93T/N133S/S106C/S111N/S158T/S96G/V101T).
T2 construct: host or cells: Expi293 cells, cell lysate
The conditions noted are these: variant c4, NG-497 (10 μM) or Atglistatin (10 μM). Here is the method: as §1, §2, §3, §4, §5

Assay [3] deals with T3, c6 (aa 1–133 of human ATGL) (Homo sapiens, UniProt Q96AD5, G146T/S158T).
T3 construct: host or cells: Expi293 cells, cell lysate
The conditions noted are these: variant c6, NG-497 (10 μM) or Atglistatin (10 μM). The method, then: as §1, §2, §3, §4, §5

Assay [4] concerns the target T4, c9 (mouse ATGL with humanized T101, C106, R109, N111, S133) (Mus musculus, UniProt Q8BJ56, C106S/N111S/R109H/S133N/T101V).
T4 construct: host or cells: Expi293 cells, cell lysate
The conditions noted are these: variant c9, NG-497 (10 μM) or Atglistatin (10 μM). The method, then: as §1, with “gray.” for “gray. S47 and D166 comprising the active site are represented as green sticks. T101, C106, R109, N111, and S133 are colored in orange, A60, N68, I69, T93, C97, and T146 are colored in magenta. TEXT PRINTED IN THE PICTURE: (b) NG-497: IC50 [μM] (human): 1.3±0.1; IC50 [μM] (c1): 1.3±0.1 | (b) Ai: IC50 [μM] (human): n.det.; IC50 [μM] (c1): n.det. | (c) NG-497: IC50 [μM] (mouse): n.det.; IC50 [μM] (c2): n.det. | (c) Ai: IC50 [μM] (mouse): 2.5±0.3; IC50 [μM] (c2): 2.4±0.1”
Expression of recombinant ATGL constructs and preparation of cell lysates. […] Protein concentrations were determined using Bio-Rad protein assay (Bio-Rad 785, Bio-Rad Laboratories, Munich, Germany) using BSA as standard. […]

T3 sequence (Q96AD5 1-288 G146T/S158T): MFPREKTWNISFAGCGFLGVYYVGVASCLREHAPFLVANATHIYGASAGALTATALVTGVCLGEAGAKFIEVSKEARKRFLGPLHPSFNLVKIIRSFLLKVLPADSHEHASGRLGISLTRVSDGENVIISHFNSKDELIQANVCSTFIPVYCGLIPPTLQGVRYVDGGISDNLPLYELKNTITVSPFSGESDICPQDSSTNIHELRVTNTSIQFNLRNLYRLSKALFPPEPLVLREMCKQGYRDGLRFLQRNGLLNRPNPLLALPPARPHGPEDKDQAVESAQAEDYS
T1 sequence (Q96AD5 1-288 N133S/G146T/S158T): as the sequence (Q96AD5 1-288 G146T/S158T) above, with N133S counted along it
T4 sequence (Q8BJ56 1-288 T101V/C106S/R109H/N111S/S133N limits assumed): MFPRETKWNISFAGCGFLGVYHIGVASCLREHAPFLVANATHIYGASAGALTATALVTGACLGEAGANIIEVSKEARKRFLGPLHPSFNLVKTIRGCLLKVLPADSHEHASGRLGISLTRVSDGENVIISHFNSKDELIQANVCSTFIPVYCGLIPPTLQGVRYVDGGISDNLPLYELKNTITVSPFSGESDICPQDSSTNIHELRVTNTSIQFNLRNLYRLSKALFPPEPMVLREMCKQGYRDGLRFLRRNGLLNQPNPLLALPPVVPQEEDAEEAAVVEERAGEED
T2 sequence (Q96AD5 1-288 I93T/S96G/F97C/V101T/S106C/H109R/S111N/N133S/G146T/S158T): as the sequence (Q96AD5 1-288 G146T/S158T) above, with I93T, S96G, F97C, V101T, S106C, H109R, S111N, N133S counted along it

As for `CN(C)C(=O)Nc1cccc(-c2ccc(N(C)C)cc2)c1` [Atglistatin, reference compound], the “inhibition of TAG hydrolase activity” value in assay [1] was “neither inhibited”; in assay [2], “neither inhibited”; in assay [3], “neither inhibited”; in assay [4], “preserved Ai binding”.
`CCOc1ccc(-c2cc(OC)cc(C(=O)OC(C)C)n2)cc1` [NG-497]: the “inhibition of TAG hydrolase activity” value in assay [1] is “neither inhibited”; in assay [2] it was “neither inhibited”; in assay [3], “neither inhibited”; in assay [4], “ineffective”.
